# How the values were obtained:
# [1] = test system: Cabbage Looper (Trichoplusia ni); experiment: Bioassay on Cabbage Looper (CL), 128-well diet tray assay; format: in vivo; conditions: 168 h, 50 μg/cm^2 on artificial diet, second instar larvae, five to seven days, read-out: CL % Control (or Mortality) rating
# Protocol: (§1) Certain molecules disclosed in this document were tested against BAW and CL using procedures described in the following examples. In the reporting of the results, the “BAW & CL Rating Table” was used (See Table Section).
# Bioassays on CL were conducted using a 128-well diet tray assay. One to five second instar CL larvae were placed in each well (3 mL) of the diet tray that had been previously filled with 1 mL of artificial diet to which 50 μg/cm^2 of the test molecule (dissolved in 50 μL of 90:10 acetone-water mixture) had been applied (to each of eight wells) and then allowed to dry. Trays were covered with a clear self-adhesive cover, vented to allow gas exchange, and held at 25° C., 14:10 light-dark for five to seven days. Percent mortality was recorded for the larvae in each well; activity in the eight wells was then averaged. The results are indicated in the table entitled “Table ABC: Biological Results” (See Table Section).
# [2] = test system: Beet Armyworm (Spodoptera exigua); experiment: Bioassay on Beet Armyworm (BAW), 128-well diet tray assay; format: in vivo; conditions: for mortality at 50 µg/cm2: Spodoptera exigua, 168 h, 50 μg/cm^2 on artificial diet, second instar larvae, five to seven days, read-out: BAW % Control (or Mortality) rating
# Protocol: as §1
# Bioassays on BAW were conducted using a 128-well diet tray assay. […] Trays were covered with a clear self-adhesive cover, vented to allow gas exchange, and held at 25° C., 14:10 light-dark for five to seven days. Percent mortality was recorded for the larvae in each well; activity in the eight wells was then averaged. The results are indicated in the table entitled “Table ABC: Biological Results” (See Table Section).
SMILES,mortality at 50 µg/cm2 [1] [%],mortality at 50 µg/cm2 [2] [%],BAW (Table CD-2) ([2]; 0.005 μg/cm^2),BAW (Table CD-2) ([2]; 0.05 μg/cm^2),BAW (Table CD-2) ([2]; 0.5 μg/cm^2),BAW (Table CD-2) ([2]; 5.0 μg/cm^2)
"CC(C)N(Nc1ncccn1)C(=O)c1ccc(/C(F)=C/C(c2cc(Cl)c(Cl)c(Cl)c2)C(F)(F)F)cc1C(F)(F)F (centres unmarked) [F170, (Z)—N-Isopropyl-N′-(pyrimidin-2-yl)-4-(1,4,4,4-tetrafluoro-3-(3,4,5-trichlorophenyl)but-1-en-1-yl)-2-(trifluoromethyl)benzohydrazide]",50 to 100,50 to 100,,,,
"O=C(NNc1ccccc1F)c1ccc(/C(F)=C/C(c2cc(Cl)c(Cl)c(Cl)c2)C(F)(F)F)cc1C(F)(F)F (centres unmarked) [F28, (Z)—N′-(2-fluorophenyl)-4-(1,4,4,4-tetrafluoro-3-(3,4,5-trichlorophenyl)but-1-en-1-yl)-2(trifluoromethyl)benzohydrazide]",50 to 100,50 to 100,,,,
"CN(NC(=O)c1ccc(/C(F)=C/C(c2cc(Cl)c(Cl)c(Cl)c2)C(F)(F)F)cc1C(F)(F)F)c1ncc(N)cn1 (centres unmarked) [F166, (Z)—N′-(5-Aminopyrimidin-2-yl)-N′-methyl-4-(1,4,4,4-tetrafluoro-3-(3,4,5-trichlorophenyl)but-1-en-1-yl)-2-(trifluoromethyl)benzohydrazide]",50 to 100,50 to 100,,,,
"O=C(N/N=C/c1ccccc1)c1ccc(/C(F)=C/C(c2cc(Cl)c(Cl)c(Cl)c2)C(F)(F)F)cc1C(F)(F)F (centres unmarked) [F38, N′-((E)-benzylidene)-4-((Z)-1,4,4,4-tetrafluoro-3-(3,4,5-trichlorophenyl)but-1-en-1-yl)-2-(trifluoromethyl)benzohydrazide]",50 to 100,50 to 100,,,,
"O=C(NNc1ncc(C(F)(F)F)cn1)c1ccc(/C(F)=C/C(c2cc(Cl)c(Cl)c(Cl)c2)C(F)(F)F)cc1C(F)(F)F (centres unmarked) [F101, (Z)-4-(1,4,4,4-Tetrafluoro-3-(3,4,5-trichlorophenyl)but-1-en-1-yl)-2-(trifluoromethyl)-N′-(5-(trifluoromethyl)pyrimidin-2-yl)benzohydrazide]",50 to 100,50 to 100,,,,
"O=C(NNc1ncccn1)c1ccc(/C(F)=C/C(c2cc(Cl)cc(OC(F)(F)F)c2)C(F)(F)F)cc1C(F)(F)F (centres unmarked) [F106, (Z)-4-(3-(3-Chloro-5-(trifluoromethoxy)phenyl)-1,4,4,4-tetrafluorobut-1-en-1-yl)-N′-(pyrimidin-2-yl)-2-(trifluoromethyl)benzohydrazide]",50 to 100,50 to 100,,,,
"Cc1cc(C)nc(NNC(=O)c2ccc(/C(F)=C/C(c3cc(Cl)c(Cl)c(Cl)c3)C(F)(F)F)cc2C(F)(F)F)n1 (centres unmarked) [F85, (Z)—N′-(4,6-Dimethylpyrimidin-2-yl)-4-(1,4,4,4-tetrafluoro-3-(3,4,5-trichlorophenyl)but-1-en-1-yl)-2-(trifluoromethyl)benzohydrazide]",50 to 100,50 to 100,,,,
"CN(NC(=O)c1ccc(/C(F)=C/C(c2ccc(Br)c(Cl)c2)C(F)(F)F)cc1C(F)(F)F)c1ncccn1 (centres unmarked) [F125, (Z)-4-(3-(4-Bromo-3-chlorophenyl)-1,4,4,4-tetrafluorobut-1-en-1-yl)-N′-methyl-N′-(pyrimidin-2-yl)-2-(trifluoromethyl)benzohydrazide]",50 to 100,50 to 100,,,,
"O=C(NNc1ccccn1)c1ccc(/C(F)=C/C(c2cc(Br)c(F)c(Br)c2)C(F)(F)F)cc1C(F)(F)F (centres unmarked) [F6, (Z)-4-(3-(3,5-Dibromo-4-fluorophenyl)-1,4,4,4-tetrafluorobut-1-en-1-yl)-N′-(pyridin-2-yl)-2-(trifluoromethyl)benzohydrazide]",50 to 100,50 to 100,,,,
"Cc1ccc(NNC(=O)c2ccc(/C(F)=C/C(c3cc(Cl)c(Cl)c(Cl)c3)C(F)(F)F)cc2C(F)(F)F)cc1 (centres unmarked) [F68, (Z)-4-(1,4,4,4-Tetrafluoro-3-(3,4,5-trichlorophenyl)but-1-en-1-yl)-N′-(p-tolyl)-2-(trifluoromethyl)benzohydrazide]",50 to 100,50 to 100,,,,
"O=C(Nn1ccnn1)c1ccc(/C(F)=C/C(c2cc(Cl)c(Cl)c(Cl)c2)C(F)(F)F)cc1C(F)(F)F (centres unmarked) [F62, (Z)-4-(1,4,4,4-Tetrafluoro-3-(3,4,5-trichlorophenyl)but-1-en-1-yl)-N-(1H-1,2,3-triazol-1-yl)-2-(trifluoromethyl)benzamide]",50 to 100,50 to 100,,,,
"C#CCN(NC(=O)c1ccc(/C(F)=C/C(c2cc(Cl)c(Cl)c(Cl)c2)C(F)(F)F)cc1C(F)(F)F)c1ncccn1 (centres unmarked) [F150, (Z)—N′-(Prop-2-yn-1-yl)-N′-(pyrimidin-2-yl)-4-(1,4,4,4-tetrafluoro-3-(3,4,5-trichlorophenyl)but-1-en-1-yl)-2-(trifluoromethyl)benzohydrazide]",50 to 100,50 to 100,,,,
"CN(NC(=O)c1ccc(/C(F)=C/C(c2cc(Br)c(F)c(Br)c2)C(F)(F)F)cc1C(F)(F)F)c1ccccc1 (centres unmarked) [F123, (Z)-4-(3-(3,5-Dibromo-4-fluorophenyl)-1,4,4,4-tetrafluorobut-1-en-1-yl)-N′-methyl-N′-phenyl-2-(trifluoromethyl)benzohydrazide]",50 to 100,50 to 100,,,,
"Nc1ccccc1NNC(=O)c1ccc(/C(F)=C/C(c2cc(Cl)c(Cl)c(Cl)c2)C(F)(F)F)cc1C(F)(F)F (centres unmarked) [F156, (Z)—N′-(2-aminophenyl)-4-(1,4,4,4-tetrafluoro-3-(3,4,5-trichlorophenyl)but-1-en-1-yl)-2-(trifluoromethyl)benzohydrazide]",50 to 100,50 to 100,,,,
"O=C(NNc1c(Cl)cc(C(F)(F)F)cc1Cl)c1ccc(/C(F)=C/C(c2cc(Cl)c(Cl)c(Cl)c2)C(F)(F)F)cc1C(F)(F)F (centres unmarked) [F87, (Z)—N′-(2,6-Dichloro-4-(trifluoromethyl)phenyl)-4-(1,4,4,4-tetrafluoro-3-(3,4,5-trichlorophenyl)but-1-en-1-yl)-2-(trifluoromethyl)benzohydrazide]",0,0,,,,
"O=C(NNc1c(Cl)cnc(Cl)c1Cl)c1ccc(/C(F)=C/C(c2cc(Cl)c(Cl)c(Cl)c2)C(F)(F)F)cc1C(F)(F)F (centres unmarked) [F30, (Z)-4-(1,4,4,4-Tetrafluoro-3-(3,4,5-trichlorophenyl)but-1-en-1-yl)-N′-(2,3,5-trichloro-4-pyridin-4-yl)-2-(trifluoromethyl)benzohydrazide]",50 to 100,50 to 100,,,,
"CN(NC(=O)c1ccc(/C(F)=C/C(c2cc(Cl)cc(Cl)c2)C(F)(F)F)cc1C(F)(F)F)c1ncccn1 (centres unmarked) [F151, (Z)-4-(3-(3,5-Dichlorophenyl)-1,4,4,4-tetrafluorobut-1-en-1-yl)-N′-methyl-N′-(pyrimidin-2-yl)-2-(trifluoromethyl)benzohydrazide]",50 to 100,50 to 100,,,,
"O=C(NNc1ccc(F)cc1F)c1ccc(/C(F)=C/C(c2cc(Cl)c(Cl)c(Cl)c2)C(F)(F)F)cc1C(F)(F)F (centres unmarked) [F26, (Z)—N′-(2,4-Difluorophenyl)-4-(1,4,4,4-tetrafluoro-3-(3,4,5-trichlorophenyl)but-1-en-1-yl)-2-(trifluoromethyl)benzohydrazide]",50 to 100,50 to 100,,,,
"Cc1cc(O)nc(NNC(=O)c2ccc(/C(F)=C/C(c3cc(Cl)c(Cl)c(Cl)c3)C(F)(F)F)cc2C(F)(F)F)n1 (centres unmarked) [F105, (Z)—N′-(4-Hydroxy-6-methylpyrimidin-2-yl)-4-(1,4,4,4-tetrafluoro-3-(3,4,5-trichlorophenyl)but-1-en-1-yl)-2-(trifluoromethyl)benzohydrazide]",50 to 100,50 to 100,,,,
"O=C(NNc1ccc(C(F)(F)F)cc1)c1ccc(/C(F)=C/C(c2cc(Cl)c(Cl)c(Cl)c2)C(F)(F)F)cc1C(F)(F)F (centres unmarked) [F70, (Z)-4-(1,4,4,4-tetrafluoro-3-(3,4,5-trichlorophenyl)but-1-en-1-yl)-2-(trifluoromethyl)-N′-(4-(trifluoromethyl)phenyl)benzohydrazide]",50 to 100,50 to 100,,,,
"CC(C)(C)NNC(=O)c1ccc(/C(F)=C/C(c2cc(Cl)c(Cl)c(Cl)c2)C(F)(F)F)cc1C(F)(F)F (centres unmarked) [F40, (Z)—N′-(tert-Butyl)-4-(1,4,4,4-tetrafluoro-3-(3,4,5-trichlorophenyl)but-1-en-1-yl)-2-(trifluoromethyl)benzohydrazide]",50 to 100,50 to 100,,,,
"O=C(NNC1CCC(F)(F)CC1)c1ccc(/C(F)=C/C(c2cc(Cl)c(Cl)c(Cl)c2)C(F)(F)F)cc1C(F)(F)F (centres unmarked) [F146, (Z)—N′-(4,4-Difluorocyclohexyl)-4-(1,4,4,4-tetrafluoro-3-(3,4,5-trichlorophenyl)but-1-en-1-yl)-2-(trifluoromethyl)benzohydrazide]",50 to 100,50 to 100,,,,
"O=C(NNc1ncccn1)c1ccc(/C(F)=C/[C@H](c2cc(Cl)c(Cl)c(Cl)c2)C(F)(F)F)cc1C(F)(F)F (single isomer, unassigned) [F120]",50 to 100,50 to 100,100,100,100,100

# — US10638756B2, “Molecules having pesticidal utility, and intermediates, compositions, and processes, related thereto” (Dow AgroSciences LLC, priority 2017, dated 2020)
